In this assay the target is T1, hFXR (Homo sapiens, UniProt Q96RI1).
T1 construct: expressed in transfected cells; host or cells: CV-1 cells
T1 sequence (Q96RI1 1-486): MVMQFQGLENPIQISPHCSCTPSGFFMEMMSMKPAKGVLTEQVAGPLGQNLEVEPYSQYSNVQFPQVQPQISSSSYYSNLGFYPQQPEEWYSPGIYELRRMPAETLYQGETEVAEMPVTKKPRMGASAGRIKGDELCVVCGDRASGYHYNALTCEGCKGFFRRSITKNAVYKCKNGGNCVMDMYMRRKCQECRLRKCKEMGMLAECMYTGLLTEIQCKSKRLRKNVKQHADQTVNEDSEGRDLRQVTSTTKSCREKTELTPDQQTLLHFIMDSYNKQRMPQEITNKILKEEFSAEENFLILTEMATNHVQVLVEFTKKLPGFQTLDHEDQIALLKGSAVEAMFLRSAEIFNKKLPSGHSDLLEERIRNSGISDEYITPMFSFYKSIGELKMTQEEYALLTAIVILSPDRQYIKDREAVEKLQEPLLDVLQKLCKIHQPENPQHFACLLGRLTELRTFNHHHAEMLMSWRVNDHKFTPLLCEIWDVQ
T1 sequence (P19793 1-462 partner): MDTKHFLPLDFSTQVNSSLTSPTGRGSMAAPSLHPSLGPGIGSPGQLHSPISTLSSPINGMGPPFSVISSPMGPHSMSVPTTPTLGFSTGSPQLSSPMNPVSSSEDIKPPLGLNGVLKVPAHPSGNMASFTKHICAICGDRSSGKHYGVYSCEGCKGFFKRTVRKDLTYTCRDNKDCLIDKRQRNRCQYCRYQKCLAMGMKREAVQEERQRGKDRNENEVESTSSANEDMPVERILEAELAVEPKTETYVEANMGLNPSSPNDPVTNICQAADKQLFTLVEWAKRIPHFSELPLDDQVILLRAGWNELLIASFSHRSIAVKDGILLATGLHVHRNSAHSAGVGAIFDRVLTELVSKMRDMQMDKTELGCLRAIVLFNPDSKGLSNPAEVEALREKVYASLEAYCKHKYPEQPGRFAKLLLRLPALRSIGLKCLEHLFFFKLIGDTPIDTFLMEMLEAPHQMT
Description: In Vitro FXR Assay (TK): TK-ECRE-luc reporter in transfected CV-1 cells. The assay is classed as cell-based. The conditions noted are these: 18 hrs, luminescence, maximum efficacy of <25% of the Fexarmine control classified as '+'. Summed up:
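Luciferase read-out after 18 h compound exposure of CV-1 cells carrying transfected hFXR plus hRXR expression plasmids, TK-ECRE-luc reporter and pCMX-YFP. Cells cultured in charcoal-stripped FBS before transfection; compounds serially diluted in DMSO.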
Regarding `COc1ccc([C@H]2CC[C@H](CN(c3cccc(-c4cnc(C5CC5)s4)c3)C(=O)[C@H]3CC[C@H](NC(=O)Cn4ccnc4)CC3)CC2)cc1C` [Compound 27.03, trans-4-(2-(1H-Imidazol-1-yl)acetamido)-N-(3-(2-cyclopropylthiazol-5-yl)phenyl)-N-((trans-4-(4-methoxy-3-methylphenyl)cyclohexyl)methyl)cyclohexanecarboxamide], the concentration giving a half-maximal response (EC50) – broadly, the concentration at which the effect is half-maximal – lay within 250 to 1000 nM.
The compound `COc1ccc([C@H]2CC[C@H](CN(c3cccc(-c4cnc(C5CC5)s4)c3)C(=O)[C@H]3CC[C@H](NC(=O)Cc4ncc[nH]4)CC3)CC2)cc1C` [Compound 27.04, trans-4-(2-(1H-Imidazol-2-yl)acetamido)-N-(3-(2-cyclopropylthiazol-5-yl)phenyl)-N-((trans-4-(4-methoxy-3-methylphenyl)cyclohexyl)methyl)cyclohexanecarboxamide] had an EC50 of at most 250 nM.
In turn, `COc1ccc([C@H]2CC[C@H](CN(c3cccc(-c4cnc(C5CC5)s4)c3)C(=O)[C@H]3CC[C@H](NC(=O)C4CN(C)C4)CC3)CC2)cc1C` [Compound 27.05, N-(trans-4-((3-(2-Cyclopropylthiazol-5-yl)phenyl)((trans-4-(4-methoxy-3-methylphenyl)cyclohexyl)methyl)carbamoyl)cyclohexyl)-1-methylazetidine-3-carboxamide] returned an EC50 of at least 1000 nM.
`COc1ccc([C@H]2CC[C@H](CN(c3cccc(-c4cnc(C5CC5)s4)c3)C(=O)[C@H]3CC[C@H](NC(=O)C4CNC4)CC3)CC2)cc1C` [Compound 27.06, N-(trans-4-((3-(2-Cyclopropylthiazol-5-yl)phenyl)((trans-4-(4-methoxy-3-methylphenyl)cyclohexyl)methyl)carbamoyl)cyclohexyl)azetidine-3-carboxamide] displayed a concentration giving a half-maximal response (EC50) of at least 1000 nM.
`COc1ccc([C@H]2CC[C@H](CN(c3cccc(-c4cnc(C5CC5)s4)c3)C(=O)[C@H]3CC[C@H](NC(=O)OCCO)CC3)CC2)cc1C` [Compound 28, 2-Hydroxyethyl (trans-4-((3-(2-cyclopropylthiazol-5-yl)phenyl)((trans-4-(4-methoxy-3-methylphenyl)cyclohexyl)methyl)carbamoyl)cyclohexyl)carbamate] returned a half-maximal effective concentration (EC50) of at most 250 nM.
With `COc1ccc([C@H]2CC[C@H](CN(c3cccc(-c4cnn(C(C)C)c4)c3)C(=O)[C@H]3CC[C@H](NCC(=O)O)CC3)CC2)cc1C` [Compound 29, 2-((trans-4-((3-(1-Isopropyl-1H-pyrazol-4-yl)phenyl)((trans-4-(4-methoxy-3-methylphenyl)cyclohexyl)methyl)carbamoyl)cyclohexyl)amino)acetic Acid] the figure was at least 1000 nM; with `COc1ccc([C@H]2CC[C@H](CN(c3cccc(-c4cnn(C5CC5)c4)c3)C(=O)[C@H]3CC[C@H](NC(=O)C4CC(OC)C4)CC3)CC2)cc1C` (stereo partly drawn) [Compound 30, trans-N-(3-(1-Cyclopropyl-1H-pyrazol-4-yl)phenyl)-N-((trans-4-(4-methoxy-3-methylphenyl)cyclohexyl)methyl)-4-(3-methoxycyclobutanecarboxamido)cyclohexanecarboxamide], at most 250 nM.
`COc1ccc([C@H]2CC[C@H](CN(c3cccc(-c4cnn(C5CC5)c4)c3)C(=O)[C@H]3CC[C@H](NC(=O)C4CCC4)CC3)CC2)cc1C` [Compound 30.01, trans-4-(Cyclobutanecarboxamido)-N-(3-(1-cyclopropyl-1H-pyrazol-4-yl)phenyl)-N-((trans-4-(4-methoxy-3-methylphenyl)cyclohexyl)methyl) cyclohexanecarboxamide] came in with a concentration for a half-maximal effect (EC50) of at most 250 nM.
`COc1ccc([C@H]2CC[C@H](CN(c3cc(-c4coc(C5CC5)n4)ccn3)C(=O)[C@H]3CC[C@H](NC(=O)C4CCC4)CC3)CC2)nc1C` [Compound 30.02, trans-4-(cyclobutanecarboxamido)-trans-(4-(2-cyclopropyloxazol-4-yl)pyridine-2-yl)-N-((trans-4-(5-methoxy-6-methylpyridin-2-yl)cyclohexyl)methyl) cyclohexanecarboxamide] gave an EC50 of at most 250 nM.
`COc1ccc([C@H]2CC[C@H](CN(c3cc(-c4coc(C5CC5)n4)ccn3)C(=O)[C@H]3CC[C@H](NC(=O)C4CC(OC)C4)CC3)CC2)nc1C` (stereo partly drawn) [Compound 30.03, trans-N-(4-(2-Cyclopropyloxazol-4-yl)pyridin-2-yl)-N-((trans-4-(5-methoxy-6-methylpyridin-2-yl)cyclohexyl)methyl)-4-(3-methoxycyclobutanecarboxamido) cyclohexanecarboxamide] returned an EC50 of at most 250 nM.
As for `COc1ccc([C@H]2CC[C@H](CN(c3cc(-c4coc(C5CC5)n4)ccn3)C(=O)[C@H]3CC[C@H](CNC(=O)C4CCC4)CC3)CC2)nc1C` [Compound 30.04, trans-4-(Cyclobutanecarboxamidomethyl)-N-(4-(2-cyclopropyloxazol-4-yl)pyridin-2-yl)-N-((trans-4-(5-methoxy-6-methylpyridin-2-yl)cyclohexyl)methyl) cyclohexanecarboxamide], the concentration for a half-maximal effect (EC50) was at most 250 nM.
On to `COc1ccc([C@H]2CC[C@H](CN(c3cc(-c4coc(C5CC5)n4)ccn3)C(=O)[C@H]3CC[C@H](CNC(=O)C4CC(N(C)C)C4)CC3)CC2)nc1C` (stereo partly drawn) [Compound 30.05, trans-N-(4-(2-Cyclopropyloxazol-4-yl)pyridin-2-yl)-4-((3-(dimethylamino)cyclobutanecarboxamido)methyl)-N-((trans-4-(5-methoxy-6-methylpyridin-2-yl)cyclohexyl)methyl) cyclohexanecarboxamide], for which the EC50 was at least 1000 nM.
The compound `COc1ccc([C@H]2CC[C@H](CN(c3cccc(-c4cnc(C5CC5)s4)c3)C(=O)[C@H]3CC[C@H](NC(=O)CNS(C)(=O)=O)CC3)CC2)cc1C` [Compound 30.06, trans-N-(3-(2-Cyclopropylthiazol-5-yl)phenyl)-N-((trans-4-(4-methoxy-3-methylphenyl)cyclohexyl)methyl)-4-(2-(methylsulfonamido)acetamido) cyclohexanecarboxamide] yielded a half-maximal effective concentration (EC50) of at most 250 nM.
With `COC(=O)NCC(=O)N[C@H]1CC[C@H](C(=O)N(C[C@H]2CC[C@H](c3ccc(OC)c(C)c3)CC2)c2cccc(-c3cnn(C4CC4)c3)c2)CC1` [Compound 31, Methyl (2-((trans-4-((03-(1-cyclopropyl-1H-pyrazol-4-yl)phenyl)((trans-4-(4-methoxy-3-methylphenyl)cyclohexyl)methyl)carbamoyl)cyclohexyl)amino)-2-oxoethyl)carbamate] the figure was at most 250 nM; with `COc1ccc([C@H]2CC[C@H](CN(c3cccc(-c4cnn(C5CC5)c4)c3)C(=O)[C@H]3CC[C@H](NC(=O)CNC(C)=O)CC3)CC2)cc1C` [Compound 31.01, trans-4-(2-Acetamidoacetamido)-N-(3-(1-cyclopropyl-1H-pyrazol-4-yl)phenyl)-N-((trans-4-(4-methoxy-3-methylphenyl)cyclohexyl)methyl)cyclohexanecarboxamide], at least 1000 nM.
With `COc1ccc([C@H]2CC[C@H](CN(c3cccc(-c4cnn(C5CC5)c4)c3)C(=O)[C@H]3CC[C@H](NC(=O)CS(C)(=O)=O)CC3)CC2)cc1C` [Compound 31.02] the figure was 250 to 1000 nM.
The compound `COc1ccc([C@H]2CC[C@H](CN(c3cccc(-c4cnn(C5CC5)c4)c3)C(=O)[C@H]3CC[C@H](NC(=O)CNS(C)(=O)=O)CC3)CC2)cc1C` [Compound 31.03, trans-N-(3-(1-Cyclopropyl-1H-pyrazol-4-yl)phenyl)-N-((trans-4-(4-methoxy-3-methylphenyl)cyclohexyl)methyl)-4-(2-(methylsulfonamido)acetamido) cyclohexane carboxamide] had an EC50 of at least 1000 nM.
Compound `COc1ccc([C@H]2CC[C@H](CN(c3cccc(-c4cnn(C5CC5)c4)c3)C(=O)[C@H]3CC[C@H](NC(=O)C[S+](C)[O-])CC3)CC2)cc1C` (stereo partly drawn) [Compound 31.04, trans-N-(3-(1-Cyclopropyl-1H-pyrazol-4-yl)phenyl)-N-((trans-4-(4-methoxy-3-methylphenyl)cyclohexyl)methyl)-4-(2-(methylsulfinyl)acetamido) cyclohexanecarboxamide] showed a half-maximal effective concentration (EC50) of 250 to 1000 nM.
On to `COC(=O)NCC(=O)N[C@H]1CC[C@H](C(=O)N(C[C@H]2CC[C@H](c3ccc(OC)c(C)c3)CC2)c2cccc(-c3cnc(C4CC4)s3)c2)CC1` [Compound 31.05, Methyl (2-((trans-4-((3-(2-cyclopropylthiazol-5-yl)phenyl)((trans-4-(4-methoxy-3-methylphenyl)cyclohexyl)methyl)carbamoyl)cyclohexyl)amino)-2-oxoethyl)carbamate], for which the EC50 is at most 250 nM.

These data come from patent publication US20220089575A1, “FARNESOID X RECEPTOR AGONISTS AND USES THEREOF” (Metacrine, Inc., priority 2017, published 2022).
